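48-hour exposure; five concentrations; linearly interpolated endpoints. Abbreviation: GI50, concentration required for 50% inhibition of growth. At the TGI there is no net growth.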
Legend:
Experiment in all cases: NCI tumour cell line growth inhibition, 48 h
A549 NSCLC = test system: A549 NSCLC
SF-539 CNS = test system: SF-539 CNS
OVCAR-3 ovarian = test system: OVCAR-3 ovarian
SR leukemia = test system: SR leukemia
ACHN renal = test system: ACHN renal
SK-MEL-28 melanoma = test system: SK-MEL-28 melanoma
NCI-H23 lung = test system: NCI-H23 lung
HL-60(TB) leukemia = test system: HL-60(TB) leukemia
SK-MEL-5 melanoma = test system: SK-MEL-5 melanoma
MCF7 breast = test system: MCF7 breast

Row | SMILES | TGI (A549 NSCLC) [µM] | TGI (SF-539 CNS) [µM] | TGI (OVCAR-3 ovarian) [µM] | TGI (SR leukemia) [µM] | TGI (ACHN renal) [µM] | TGI (SK-MEL-28 melanoma) [µM] | TGI (NCI-H23 lung) [µM] | TGI (HL-60(TB) leukemia) [µM] | TGI (SK-MEL-5 melanoma) [µM] | GI50 (MCF7 breast) [µM] | TGI (MCF7 breast) [µM] | GI50 (A549 NSCLC) [µM] | GI50 (SF-539 CNS) [µM] | GI50 (OVCAR-3 ovarian) [µM] | GI50 (ACHN renal) [µM] | GI50 (SK-MEL-28 melanoma) [µM] | GI50 (SK-MEL-5 melanoma) [µM] | GI50 (NCI-H23 lung) [µM]
1 | Cc1cccc(C(C)C)c1NC(=O)CC1C(=O)Nc2ccccc2S1(=O)=O (stereo unspecified) | 39.3 | 14.5 | 38.5 | 4.32 | > 58.2 | > 56 | 31.3 | 28.4 | 46.4 | – | – | – | – | – | – | – | – | –
2 | CN1c2ccccc2N(C)C23N(C)c4ccccc4N(C)C12N(C)c1ccccc1N3C (stereo unspecified) | > 100 | > 100 | > 100 | – | > 100 | > 100 | > 100 | > 100 | > 100 | – | – | – | – | – | – | – | – | –
3 | Cc1ccc(Nc2nc(C)c(C(/C=C/c3ccc(/C=C/C(=N/NC(=O)C[n+]4ccccc4)c4sc(Nc5ccc(C)cc5[N+](=O)[O-])nc4C)cc3)=N\NC(=O)C[n+]3ccccc3)s2)c([N+](=O)[O-])c1 | > 100 | > 100 | > 100 | > 100 | > 100 | > 100 | > 100 | > 100 | – | – | – | – | – | – | – | – | – | –
4 | COc1ccc(/C=N/N=C(\N)NO)c(OC)c1 | > 100 | > 100 | > 100 | – | > 100 | > 100 | > 100 | – | > 100 | – | – | – | – | – | – | – | – | –
5 | [N-]=[N+]=NC(CI)c1cn([C@H]2C[C@H](O)[C@@H](CO)O2)c(=O)[nH]c1=O (stereo partly specified) | > 100 | > 100 | > 100 | > 100 | > 100 | > 100 | > 100 | > 100 | > 100 | – | – | – | – | – | – | – | – | –
6 | O=C1c2ccccc2-c2c1c1ccccc1c(=O)n2CCN1CCOCC1 | > 100 | > 100 | > 100 | – | 92 | > 100 | – | – | > 100 | 43.7 | > 100 | 64.8 | 84.9 | 82.2 | 29.8 | > 100 | 49 | –
7 | Cc1ccccc1NC(=O)C(=O)CC(=O)c1c(C)n([O-])c2ccccc2[n+]1=O | > 100 | > 100 | > 100 | 0.0875 | > 100 | > 100 | > 100 | – | – | – | – | – | – | – | – | – | – | –
8 | COc1cc(C2C(Cl)C(=O)N2NC(=O)c2ccc(N)cc2)ccc1O (stereo unspecified) | > 100 | 62.1 | 39 | – | > 100 | > 100 | 44.8 | > 100 | > 100 | – | – | – | – | – | – | – | – | –
9 | CCOC(=O)NC(=O)c1cn(CCN2CCN(c3ncnc4nc[nH]c34)CC2)c(=O)[nH]c1=O | > 100 | > 100 | > 100 | > 100 | > 100 | > 100 | > 100 | > 100 | > 100 | – | – | – | – | – | – | – | – | –
10 | CCOC(=O)C(=Cc1cccnc1C)C(=O)OCC | 51.3 | 33.3 | 8.67 | 26.2 | 29.5 | 36.5 | 18.4 | > 100 | 25.1 | – | – | – | – | – | – | – | – | –
11 | C[Si](C)(C)c1ccc(-c2sc(-c3ccc([Si](C)(C)C)s3)c3c2C[Si]2(C3)Cc3c(-c4ccc([Si](C)(C)C)s4)sc(-c4ccc([Si](C)(C)C)s4)c3C2)s1 | > 100 | > 100 | > 100 | > 100 | > 100 | > 100 | > 100 | > 100 | > 100 | – | – | – | – | – | – | – | – | –
12 | CCc1cccc(C)c1NC(=O)C(=O)Cc1nc2ccccc2s1 | > 100 | > 100 | > 100 | > 100 | > 100 | > 100 | > 100 | > 100 | > 100 | – | – | – | – | – | – | – | – | –
13 | CN(/N=C/c1cccc2cccnc12)c1ccccc1 | > 100 | > 100 | 68 | – | > 100 | > 100 | > 100 | > 100 | > 100 | – | – | – | – | – | – | – | – | –
14 | COc1ccc2ccccc2c1C1OC(=O)c2ccccc21 (stereo unspecified) | > 100 | > 100 | > 100 | – | > 100 | – | > 100 | > 100 | > 100 | – | – | – | – | – | – | – | – | –
15 | C1=C2/CC[C@H](Sc3ccccc3)[C@H]2C2(CCCCC/1)OCCO2 | > 100 | > 100 | 81.7 | > 100 | > 100 | > 100 | > 100 | 65.7 | 59.1 | – | – | – | – | – | – | – | – | –
16 | O=S1(=O)OCCOS(=O)(=O)C1Cc1ccccc1 | > 100 | 95.6 | 44.9 | > 100 | > 100 | > 100 | > 100 | 54.5 | – | – | – | – | – | – | – | – | – | –
17 | COc1ccc(C(C#N)Cc2cc(OC)c(OC)c(OC)c2)cc1 (stereo unspecified) | > 100 | > 100 | > 100 | – | > 100 | > 100 | – | 64.3 | 37.3 | – | – | – | – | – | – | – | – | –
18 | Cc1ccc(C)c(NC(=O)CC/C(=N\NC(=O)c2c(O)ccc3ccccc23)C(C)C(=O)c2ccc(O)cc2)c1 (stereo unspecified) | > 100 | 80.5 | 89.2 | 90.3 | 84.6 | > 100 | 91.3 | > 100 | > 100 | – | – | – | – | – | – | – | – | –
19 | COC(=O)C1=C(c2cc(OC)c(OC)c(OC)c2)OC(c2ccc(OC)c(OC)c2)C1 (stereo unspecified) | > 100 | > 100 | > 100 | > 100 | > 100 | > 100 | > 100 | > 100 | 93.7 | – | – | – | – | – | – | – | – | –
20 | O=C(NN1C(=O)CSC12CCCC2)c1[nH]c2ccc(Br)cc2c1-c1ccccc1 | > 100 | > 100 | 56.7 | – | > 100 | > 100 | > 100 | – | > 100 | 37.2 | > 100 | 35.5 | > 100 | 18.8 | > 100 | 44 | 63.9 | 41.1
21 | C[C@]12CCC3[C@@H](CC[C@@H]4c5nonc5CC[C@]34C)C1C/C(=N/O)C2=O (stereo partly specified) | > 100 | > 100 | > 100 | – | > 100 | > 100 | > 100 | 13.3 | > 100 | – | – | – | – | – | – | – | – | –
22 | CN(C(=O)c1ccco1)C(=S)N1CCN(c2ccccc2)CC1 | > 100 | > 100 | > 100 | > 100 | > 100 | > 100 | > 100 | > 100 | > 100 | – | – | – | – | – | – | – | – | –

— PubChem BioAssay (NCI)
